Reference: PMC5615103 (Toxicology Reports, 2017)
Entries after “also recorded” stand apart in the source; their conditions may differ. Read-outs that look alike come from different tables or passages of the source. Marks after values point to notes of the source that are not given here.

How the values were obtained:
[1] = average plasma maximum concentration; assay type: in vivo, humans; conditions: human
[2] = WST-1 dose-response cytotoxicity in THP-1 monocytes; assay type: cell-based, human; conditions: human, THP-1 monocytes
HepG2 cells [3] = assay: HepG2 viability; assay type: cell-based, human; conditions: 3-5 × 10^5 THP-1 monocytes, no stimulus; same concentrations
[4] = cited from earlier work; for DILI classification (b) positive or negative for DILI: ref Xu et al. [33]; for iDILI/non-iDILI: selected by literature research, ref [30], [4], [8], [31], [32]; for FDA status: FDA-approved labels, ref DailyMed; for DILI classification (a) LTKB class: Liver Toxicity Knowledge Base, ref Chen et al. [34]
HepG2 cells [5] = assay: WST-1 dose-response cytotoxicity in HepG2 monoculture; assay type: cell-based, human; conditions: for EC80 (concentration at which 80% of the cells are still viable) / EC50: HepG2, 24 h; for EC80 (concentration at which 80% of the cells are still viable): WST-1; for EC50: Homo sapiens
[6] = as above; assay type: cell-based, human; conditions: human, HepG2 cells (monoculture)
HepG2 cells [7] = assay: HepG2 viability; assay type: cell-based, human; conditions: 10 ng/mL TNF, 24 h; for synergistic effect (enhanced cellular death) on co-exposure with TNF: HepG2 monoculture, 32 μM TGZ/RGZ, 25 μM TVX/LVX, 125 μM DcL/ASS, 20 μM KC/FC; for change of the TNF-dependent synergistic effect by addition of THP-1 monocytes: co-culture HepG2 + THP-1 monocytes
THP-1 monocytes = assay: WST-1 dose-response cytotoxicity in THP-1 monocytes; assay type: cell-based, human; conditions: for EC50: Homo sapiens, THP-1, 24 h; for EC80 (concentration at which 80% of the cells are still viable): THP-1 monocytes, 24 h, WST-1
HepG2 cells [8] = assay: HepG2 viability; assay type: cell-based, human; conditions: 1 μg/mL LPS, 48 h; for enhanced cell death in HepG2 cells on co-exposure with LPS: mono- and co-cultures with THP-1 monocytes, 25 μM TVX/LVX, 20 μM KC/FC; for synergy with LPS in co-culture with THP-1 monocytes: co-culture HepG2 + THP-1 monocytes
HepG2 cells [9] = assay: HepG2 monoculture, increasing drug concentrations with or without TNF, WST-1; assay type: cell-based, human; conditions: 24 h; for TNF-dependent synergistic effect at increasing drug concentrations: with vs without 10 ng/mL TNF
HepG2 cells [10] = assay: Morphology of HepG2 cell cultures; assay type: cell-based, human; conditions: 24 h; for alterations in the morphology of HepG2 cell cultures: 25 μM TVX or 125 μM DcL + 10 ng/mL TNF
[11] = human plasma, cited from earlier work

Row | Structure (SMILES) | Cmax [1] | influence of higher THP-1 monocyte number on the effect in co-culture (HepG2 cells [3]) | DILI classification (b) positive or negative for DILI [4] | iDILI/non-iDILI [4] | EC80 (concentration at which 80% of the cells are still viable) (HepG2 cells [5]) | EC50 (HepG2 cells [5]) | synergistic effect (enhanced cellular death) on co-exposure with TNF (HepG2 cells [7]) | EC50 (THP-1 monocytes) | EC80 (concentration at which 80% of the cells are still viable) (THP-1 monocytes) | FDA status [4] | DILI classification (a) LTKB class [4] | enhanced cell death in HepG2 cells on co-exposure with LPS (HepG2 cells [8]) | also measured
1 | CN(CCOc1ccc(CC2SC(=O)NC2=O)cc1)c1ccccn1 (centres unmarked) [RGZ, Rosiglitazone] | 104 µM | only negligible effects | negative | Non-iDILI | – | – | – | – | – | – | – | – | cytotoxicity at 24 h, 32 µM [2]: 10%
2 | Cc1c(C)c2c(c(C)c1O)CCC(C)(COc1ccc(CC3SC(=O)NC3=O)cc1)O2 (centres unmarked) [TGZ, Troglitazone] | 639 µM | enhanced at higher THP-1 cell numbers | positive | iDILI | 34 µM | 40 µM | synergy | 42 µM | 27 µM | WDN | Most DILI-concern | – | viability at 24 h, 32 μM [6]: ~85%; viability at 24 h, 32 μM [2]: ~70%
3 | OC(Cn1cncn1)(Cn1cncn1)c1ccc(F)cc1F [FC, Fluconazole] | 882 µM | – | positive | – | – | – | – | – | – | – | Most DILI-concern | did not show any relevant effects | –
4 | N[C@@H]1[C@H]2CN(c3nc4c(cc3F)c(=O)c(C(=O)O)cn4-c3ccc(F)cc3F)C[C@@H]12 [TVX, Trovafloxacin] | 408 µM | – | – | iDILI | 100 µM | 370 µM | stronger than in the case of TGZ and KC | 60 µM | 23 µM | WDN | – | significantly enhanced cell death | TNF-dependent synergistic effect at increasing drug concentrations (HepG2 cells [9]): dose-dependently increased; viability at 24 h, 25 μM [6]: ~92%; alterations in the morphology of HepG2 cell cultures (HepG2 cells [10]): pronounced hepatocellular injury; viability at 24 h, 25 μM [2]: ~76%; synergy with LPS in the HepG2 monoculture (HepG2 cells [8]; HepG2 monoculture): showed a synergy; synergy with LPS in co-culture with THP-1 monocytes (HepG2 cells [8]): not intensified by immune cells
5 | C[C@H]1COc2c(N3CCN(C)CC3)c(F)cc3c(=O)c(C(=O)O)cn1c23 [LVX, Levofloxacin] | 1580 µM | – | negative | – | – | – | – | – | – | – | – | did not show any relevant effects | –
6 | CC(=O)Oc1ccccc1C(=O)O [ASS, Acetylsalicylic acid] | 552 µM | – | negative | Non-iDILI | – | – | – | – | – | – | – | – | Cmax ([11]; commonly recommended therapeutic doses, ref Xu et al. [33]): 1.00 µg/mL
7 | O=C(O)Cc1ccccc1Nc1c(Cl)cccc1Cl [DcL, Diclofenac] | 744 µM | enhanced by higher numbers of immune cells | positive | – | 604 µM | 775 µM | stronger than in the case of TGZ and KC | 76 µM | 30 µM | – | Most DILI-concern | – | doses necessary to elicit enhanced toxicities (onset of synergy with TNF) (HepG2 cells [9]; 10 ng/mL TNF): > 50 µM; synergistic effect when co-exposed with TNF (HepG2 cells [9]; drug 50 μM, 10 ng/mL TNF): not able to induce a synergistic effect; TNF-dependent synergistic effect at increasing drug concentrations (HepG2 cells [9]): stronger than those of TGZ and KC; cytotoxicity / metabolic activity at the used concentration (HepG2 cells [5]; HepG2, same concentration as in co-culture experiments, 24 h): no cytotoxicity; also recorded: not affected; viability at 24 h, 125 μM [6]: ~100%; change of the TNF-dependent synergistic effect by addition of THP-1 monocytes (HepG2 cells [7]): compensated in the co-culture system; alterations in the morphology of HepG2 cell cultures (HepG2 cells [10]): pronounced hepatocellular injury; morphology of HepG2 cells (HepG2 cells [10]; selected concentration (125 μM), drug alone): morphological changes; viability at 24 h, 125 μM [2]: ~30%
8 | CC(=O)N1CCN(c2ccc(OCC3COC(Cn4ccnc4)(c4ccc(Cl)cc4Cl)O3)cc2)CC1 (centres unmarked) [KC, Ketoconazole] | 794 µM | enhanced by higher numbers of immune cells | – | iDILI | 18 µM | 24 µM | – | 12 µM | 7 µM | BBW | Most DILI-concern | significantly enhanced cell death | Cmax ([11]; ref Huang et al. [35]): 4.22** μg/mL; viability at 24 h, 20 μM [6]: ~80%; change of the TNF-dependent synergistic effect by addition of THP-1 monocytes (HepG2 cells [7]): compensated in the co-culture system; viability at 24 h, 20 μM [2]: ~20%; synergy with LPS in co-culture with THP-1 monocytes (HepG2 cells [8]): showed a synergy only in the presence of both
